Experimental findings from patent US7579356B2, “Thia-tetraazaacenaphthylene kinase inhibitors” (Janssen Pharmaceutica NV, priority 2005, dated 2009) are described below.

One test has as its target T1, EGFR (Homo sapiens, UniProt P00533).
T1 construct: The intracellular portion of EGFR started at nucleotide 2189 (corresponding to amino acid 667) and ended at the termination codon; made in house; host or cells: Sf9 insect cells (baculovirus)
In words: EGFR Kinase Assay. The class given is biochemical. As to conditions: for IC50: GST-EGFR, ATP 5 μM; for inhibition at 2 µM: test concentration of 2 μM, compounds without an IC50, read-out: EGFR inhibition in percent. Summed up:
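Potency came from triplicate 16-point half-log titrations starting at 200 uM, with IC50 fitted from % inhibition against log concentration, or % inhibition at 2 μM otherwise. Reaction: Sf9-made GST–EGFR cytoplasmic region (aa 667 onward), biotin-polyGluTyr, 5 μM ATP with 33P tracer, pH 8.0 Tris/Mg/vanadate/DTT, 30 °C for 1 h; captured on streptavidin Flashplates and counted.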

A further test deals with T2, HER-2 (Homo sapiens, UniProt P04626).
T2 construct: His6 with thrombin site (N); purchased Proqinase (Freiburg, Germany)
T2 sequence (P04626 679-1255): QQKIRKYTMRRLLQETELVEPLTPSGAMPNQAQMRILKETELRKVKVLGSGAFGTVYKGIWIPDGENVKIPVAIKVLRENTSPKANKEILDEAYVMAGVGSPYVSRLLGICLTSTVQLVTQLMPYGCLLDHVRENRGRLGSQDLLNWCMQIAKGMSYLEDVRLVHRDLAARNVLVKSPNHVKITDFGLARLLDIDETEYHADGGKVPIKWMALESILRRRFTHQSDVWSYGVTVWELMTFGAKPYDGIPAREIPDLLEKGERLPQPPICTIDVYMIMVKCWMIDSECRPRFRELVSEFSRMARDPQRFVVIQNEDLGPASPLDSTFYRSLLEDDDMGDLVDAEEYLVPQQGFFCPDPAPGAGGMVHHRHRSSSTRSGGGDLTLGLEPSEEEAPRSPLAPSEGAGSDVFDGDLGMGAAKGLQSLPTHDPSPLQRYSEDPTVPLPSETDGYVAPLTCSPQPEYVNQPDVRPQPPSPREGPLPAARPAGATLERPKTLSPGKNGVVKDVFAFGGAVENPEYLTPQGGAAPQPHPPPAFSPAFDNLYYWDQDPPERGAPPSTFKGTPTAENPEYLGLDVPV
In words: HER-2 Kinase Assay. The test is classed as biochemical. The note with it: value in parentheses. The gist of the method: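 Read-out was scintillation counting of 33P incorporated into biotinylated polyGluTyr captured on streptavidin plates. Reactions ran 1 h at 30 °C with GST-fused HER-2 residues 679–1255, 1 μM ATP, Mn2+ and Mg2+ at pH 7.5; data given as percent inhibition at 1 μM, with IC50 where determined.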

T1 sequence (P00533 669-1210 limits assumed): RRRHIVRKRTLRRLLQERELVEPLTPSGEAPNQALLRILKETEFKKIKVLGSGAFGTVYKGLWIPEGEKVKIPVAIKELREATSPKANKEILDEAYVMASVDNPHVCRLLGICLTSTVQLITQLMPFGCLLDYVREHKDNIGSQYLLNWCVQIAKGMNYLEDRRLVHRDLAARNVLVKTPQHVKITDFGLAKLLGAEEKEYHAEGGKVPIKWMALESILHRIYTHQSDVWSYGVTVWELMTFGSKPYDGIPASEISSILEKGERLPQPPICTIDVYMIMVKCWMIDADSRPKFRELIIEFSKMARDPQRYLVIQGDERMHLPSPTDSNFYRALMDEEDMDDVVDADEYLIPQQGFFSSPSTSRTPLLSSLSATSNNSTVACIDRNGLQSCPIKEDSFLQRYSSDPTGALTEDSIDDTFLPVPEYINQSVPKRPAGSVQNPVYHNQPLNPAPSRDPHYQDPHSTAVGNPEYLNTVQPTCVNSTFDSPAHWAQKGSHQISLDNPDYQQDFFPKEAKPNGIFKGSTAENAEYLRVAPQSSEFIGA

As for `O=C(Nc1ccc(C(O)CN2CCOCC2)cc1)c1sc2ncnc3c2c1NC(=O)N3c1ccc(Oc2ccccc2)cc1` (stereo not drawn) [Cpd 174, 4-oxo-5-(4-phenoxy-phenyl)-4,5-dihydro-3H-1-thia-3,5,6,8-tetraaza-acenaphthylene-2-carboxylic acid [4-(1-hydroxy-2-morpholin-4-yl-ethyl)-phenyl]-amide], the half-maximal inhibitory concentration (IC50) – broadly, the point on the concentration scale where inhibition reaches its midpoint – on EGFR is 18 nM; at HER-2, 818 nM.
The matching figures for `COc1cc(NC(=O)c2sc3ncnc4c3c2NC(=O)N4c2ccc(OCc3ccco3)c(Cl)c2)ccc1CN1CCOCC1` [Cpd 246, 5-[3-chloro-4-(furan-2-ylmethoxy)-phenyl]-4-oxo-4,5-dihydro-3H-1-thia-3,5,6,8-tetraaza-acenaphthylene-2-carboxylic acid (3-methoxy-4-morpholin-4-ylmethyl-phenyl)-amide]: 22 nM and 47 nM.
The matching figures for `O=C(Nc1ccc(CN2CCC(CO)CC2)cc1)c1sc2ncnc3c2c1NC(=O)N3c1ccc(Oc2ccccc2)cc1` [Cpd 254, 4-oxo-5-(4-phenoxy-phenyl)-4,5-dihydro-3H-1-thia-3,5,6,8-tetraaza-acenaphthylene-2-carboxylic acid [4-(4-hydroxymethyl-piperidin-1-ylmethyl)-phenyl]-amide]: 26 nM and 68 nM.
The matching figures for `CN1CCN(C(=O)c2sc3ncnc4c3c2NC(=O)N4c2ccc(Oc3ccccc3)cc2)CC1` [Cpd 216, 2-(4-methyl-piperazine-1-carbonyl)-5-(4-phenoxy-phenyl)-3H,5H-1-thia-3,5,6,8-tetraaza-acenaphthylen-4-one]: 780 nM and roughly 100000 nM.
Take `O=C(Nc1ccc(CN2CCOCC2)cc1)c1sc2ncnc3c2c1NC(=O)N3c1ccc(OCc2ccccn2)c(Br)c1` [Cpd 180, 5-[3-bromo-4-(pyridin-2-ylmethoxy)-phenyl]-4-oxo-4,5-dihydro-3H-1-thia-3,5,6,8-tetraaza-acenaphthylene-2-carboxylic acid (4-morpholin-4-ylmethyl-phenyl)-amide]: the results for the half-inhibitory concentration (IC50) against EGFR and at HER-2 were 95 nM and 112 nM, respectively.
For `CCOC(=O)c1sc2ncnc3c2c1NC(=O)N3c1ccc(OCc2cccs2)c(Cl)c1` [Cpd 223, 5-[3-chloro-4-(thiophen-2-ylmethoxy)-phenyl]-4-oxo-4,5-dihydro-3H-1-thia-3,5,6,8-tetraaza-acenaphthylene-2-carboxylic acid ethyl ester], on EGFR, the inhibition – broadly, the change of the read-out against control, counted positive when it falls – at 2 µM was 5%. Moreover, on HER-2, the IC50 is greater than 100000 nM.
As for `COc1cc(NC(=O)c2sc3ncnc4c3c2NC(=O)N4c2cccc(Br)c2)ccc1CN1CCOCC1` [Cpd 184, 5-(3-bromo-phenyl)-4-oxo-4,5-dihydro-3H-1-thia-3,5,6,8-tetraaza-acenaphthylene-2-carboxylic acid (3-methoxy-4-morpholin-4-ylmethyl-phenyl)-amide], the results for the IC50 at EGFR and at HER-2 were 17 nM and 79 nM, respectively.
For `COc1cc(NC(=O)c2sc3ncnc4c3c2NC(=O)N4c2ccc(Sc3ccccc3)cc2)ccc1CN1CCOCC1` [Cpd 219, 4-oxo-5-(4-phenylsulfanyl-phenyl)-4,5-dihydro-3H-1-thia-3,5,6,8-tetraaza-acenaphthylene-2-carboxylic acid (3-methoxy-4-morpholin-4-ylmethyl-phenyl)-amide] the same measures were 127 nM and 58 nM.
Regarding `O=C(Nc1ccc(CN2CCCCC2)cc1)c1sc2ncnc3c2c1NC(=O)N3c1ccc(Oc2cccnc2)c(Cl)c1` [Cpd 209, 5-[3-chloro-4-(pyridin-3-yloxy)-phenyl]-4-oxo-4,5-dihydro-3H-1-thia-3,5,6,8-tetraaza-acenaphthylene-2-carboxylic acid (4-piperidin-1-ylmethyl-phenyl)-amide], the results for the IC50 on EGFR and on HER-2 were 101 nM and 72 nM, respectively.
The matching figures for `CC1COCC(C)N1Cc1ccc(NC(=O)c2sc3ncnc4c3c2NC(=O)N4c2ccc(Oc3ccccc3)cc2)cc1` (stereo not drawn) [Cpd 253, 4-oxo-5-(4-phenoxy-phenyl)-4,5-dihydro-3H-1-thia-3,5,6,8-tetraaza-acenaphthylene-2-carboxylic acid [4-(3,5-dimethyl-morpholin-4-ylmethyl)-phenyl]-amide]: 120 nM and 344 nM.
Turning to `CCOC(=O)c1sc2ncnc3c2c1NC(=O)N3c1ccc(OCc2ccco2)c(Cl)c1` [Cpd 222, 5-[3-chloro-4-(furan-2-ylmethoxy)-phenyl]-4-oxo-4,5-dihydro-3H-1-thia-3,5,6,8-tetraaza-acenaphthylene-2-carboxylic acid ethyl ester], the inhibition at 2 µM on EGFR amounted to 4%. The IC50 on HER-2 is greater than 100000 nM.
Consider `COc1cc(NC(=O)c2sc3ncnc4c3c2NC(=O)N4c2ccc(OCc3cccs3)c(Cl)c2)ccc1CN1CCOCC1` [Cpd 229, 5-[3-chloro-4-(thiophen-2-ylmethoxy)-phenyl]-4-oxo-4,5-dihydro-3H-1-thia-3,5,6,8-tetraaza-acenaphthylene-2-carboxylic acid (3-methoxy-4-morpholin-4-ylmethyl-phenyl)-amide], for which the IC50 against EGFR stood at 33 nM; on HER-2, 17 nM.
For `O=C(Nc1ccc(CN2CCCCC2)cc1)c1sc2ncnc3c2c1NC(=O)N3c1ccc(Oc2cccc(F)c2)c(Cl)c1` [Cpd 160, 5-[3-chloro-4-(3-fluoro-phenoxy)-phenyl]-4-oxo-4,5-dihydro-3H-1-thia-3,5,6,8-tetraaza-acenaphthylene-2-carboxylic acid (4-piperidin-1-ylmethyl-phenyl)-amide] the same measures were 23 nM and 155 nM.
In the case of `CCOC(=O)c1sc2ncnc3c2c1NC(=O)N3C(C)c1ccc(Br)cc1` (stereo not drawn) [Cpd 179, 5-[1-(4-bromo-phenyl)-ethyl]-4-oxo-4,5-dihydro-3H-1-thia-3,5,6,8-tetraaza-acenaphthylene-2-carboxylic acid ethyl ester], the inhibition at 2 µM at EGFR was found to be 0.7%. For the same compound, the half-maximal inhibitory concentration (IC50) on HER-2 is greater than 100000 nM.
Regarding `O=C(Nc1ccc(CN2CCOCC2)c(C(F)(F)F)c1)c1sc2ncnc3c2c1NC(=O)N3c1ccc(Oc2ccccc2)cc1` [Cpd 231, 4-oxo-5-(4-phenoxy-phenyl)-4,5-dihydro-3H-1-thia-3,5,6,8-tetraaza-acenaphthylene-2-carboxylic acid (4-morpholin-4-ylmethyl-3-trifluoromethyl-phenyl)-amide], the figures for the IC50 at EGFR and at HER-2 were 314 nM and 1050 nM, respectively.
For `CN1CCCN(C(=O)c2sc3ncnc4c3c2NC(=O)N4c2ccc(Oc3ccccc3)cc2)CC1` [Cpd 214, 2-(4-methyl-[1,4]diazepane-1-carbonyl)-5-(4-phenoxy-phenyl)-3H,5H-1-thia-3,5,6,8-tetraaza-acenaphthylen-4-one] the same measures were 1300 nM and greater than 10000 nM.
The matching figures for `CN(C)CCCNC(=O)c1sc2ncnc3c2c1NC(=O)N3c1ccc(Sc2ccccc2)cc1` [Cpd 212, 4-oxo-5-(4-phenylsulfanyl-phenyl)-4,5-dihydro-3H-1-thia-3,5,6,8-tetraaza-acenaphthylene-2-carboxylic acid (3-dimethylamino-propyl)-amide]: 36 nM and 168 nM.
The matching figures for `O=C(Nc1ccc(CCN2CCCCC2)cc1)c1sc2ncnc3c2c1NC(=O)N3c1cccc2ccoc12` [Cpd 251, 5-benzofuran-7-yl-4-oxo-4,5-dihydro-3H-1-thia-3,5,6,8-tetraaza-acenaphthylene-2-carboxylic acid [4-(2-piperidin-1-yl-ethyl)-phenyl]-amide]: 141 nM and 285 nM.
